According to US10471118B2, “Retinylamine derivitives for treatment of ocular disorders” (CASE WESTERN RESERVE UNIVERSITY, priority 2014, dated 2019):

Key:
[1] = Storage stability of RVG and Ret-NH2; format: physicochemical
Description: The synthesis was straightforward, and Ret-NH2 reacted with fluorenylmethyloxycarbonyl (Fmoc) protected amino acids or peptides in the presence of coupling agents. The Fmoc group then was removed using 20% piperidine in […] solution to give target molecules. The retinylamine derivatives were characterized by ^1H-NMR, ^13C-NMR and mass spectroscopy. The retinylamine derivatives had the purity over 95% as determined by HPLC except 3m Ret-Gly-Gly (RGG) with the purity of 90% (see SI). We tested the stability of RVG. Less than 5% degradation was observed when RVG was stored in the desiccator under vacuum at r.t. for 2 months, while 95% of Ret-NH2 decomposed under the same condition within 1 week.

[2] = Pharmacokinetics of PEG-GFL-NH-Ret in C57BL mice (N-retinylamides in liver and eye); format: in vivo; details: 1 mg equivalent Ret-NH2 per mouse oral, especially first 8 h after gavage
Method: Female C57BL mice (4-week-old) were randomly divided into two dosing groups. One group of mice was gavaged with one dose of Ret-NH2 (1 mg per mouse, dissolved in DMSO), and the other group of mice was also gavaged once with PEG-GFL-NH-Ret (17.5 mg per mouse, equivalent to 1 mg Ret-NH2 per mouse). Then at each predetermined time point (0, 4 h, 8 h, 24 h, 48 h and 72 h after drug administration), 6 mice were sacrificed. The liver and eye balls were collected to determine tissue N-retinylamide content for pharmacokinetic analysis. A portion of the liver tissue (ca. 0.5 g) was weighed, homogenized in 2 mL 1:1 ethanol:PBS solution and the eye balls were similarly processed. N-Retinylamides were extracted in 4 mL hexane, concentrated, and reconstituted to a 300 μL volume. Normal-phase HPLC (Agilent-Zorbax SIL; 5 μm; 4.5×250 mm; flow rate of 1.4 mL/min; 80:20 hexane:ethyl acetate (v:v); detection at 325 nm) was utilized to determine N-retinylamide concentration in these tissues.

[3] = Storage stability of PEG-GFL-NH-Ret conjugate in solid form; format: physicochemical; details: room temperature, same condition
Description: The number and weight-average molecular weights of polymer conjugate was 21 and 22 kDa (Mw/Mn=1.05), as determined by size exclusion chromatography. […] The structure of PEG-GFL-NHRet was preserved during the storage in solid form more than 6 months at room temperature, while free Ret-NH2 decomposed in less than 1 week under the same condition.

Abca4^−/−Rdh8^−/− mice = assay: Preventing light-induced retinal degeneration with PEG-GFL-NH-Ret in Abca4-/-Rdh8-/- mice; format: in vivo, mouse
Method: Abca4^−/−Rdh8^−/− mice (male and female, 4-week-old, 4-5 mice in each treatment group) were kept in the dark for 48 h before each experiment. Then free Ret-NH2 (0.5 mg, 1.75 μmol) per mouse) or conjugate PEG-GFL-NH-Ret (8.75 mg per mouse, equivalent to 0.5 mg free Ret-NH2 per mouse) was administered by gastric gavage. Mice were illuminated with 10,000 lux light for 30 min at 1 day, 3 days or 6 days after their gavage, and then kept in the dark for 7 days when final retinal evaluations were performed. […] Dark-adapted mice were anesthetized by the same protocol used for OCT recordings. All experimental procedures were performed under a safety light. A contact lens electrode was placed on the eye, and a reference electrode and ground electrode were placed underneath the skin between the two ears and in the tail, respectively. ERGs were recorded with the universal electrophysiologic system UTAS E-3000 (LKC Technologies, Inc., Gaithersburg, Md.). Light intensity calibrated by the manufacturer was computer-controlled. Mice were placed in a Ganzfeld dome, and scotopic responses to flash stimuli were obtained from both eyes simultaneously.

Compound | degradation on storage ([1]; stored in the desiccator under vacuum at r.t. for 2 months) | decomposed on storage ([1]; desiccator under vacuum at r.t., within 1 week) [%] | liver concentrations of N-retinylamides [2] | time to decomposition on storage [3] | protection against light-induced retinal degeneration by OCT (Abca4^−/−Rdh8^−/− mice; 0.5 mg Ret-NH2 equivalent per mouse gavaged 1 day before light exposure) | protection against light-induced retinal degeneration by OCT (Abca4^−/−Rdh8^−/− mice; 0.5 mg Ret-NH2 equivalent per mouse gavaged 3 days before light exposure) | protection against light-induced retinal degeneration by OCT (Abca4^−/−Rdh8^−/− mice; 0.5 mg Ret-NH2 equivalent per mouse gavaged 6 days before light exposure) | ONL thickness from OCT images (Abca4^−/−Rdh8^−/− mice; gavaged 1 day before light exposure) | ERG responses (Abca4^−/−Rdh8^−/− mice; gavaged 3 days before strong light exposure) | ONL thickness from OCT images (Abca4^−/−Rdh8^−/− mice; gavaged 3 days before strong light illumination)
CC1=C(/C=C/C(C)=C/C=C/C(C)=C/CNC(=O)[C@@H](NC(=O)CN)C(C)C)C(C)(C)CCC1 [RVG, (S)-2-(2-aminoacetamido)-N-((2E,4E,6E,8E)-3,7-dimethyl-9-(2,6,6-trimethylcyclohex-1-en-1-yl)nona-2,4,6,8-tetraen-1-yl)-3-methylbutanamide] | Less than 5% |  |  |  |  |  |  |  |  | 
CC1=C(/C=C/C(C)=C/C=C/C(C)=C/CN)C(C)(C)CCC1 [Ret-NH2, (2E,4E,6E,8E)-3,7-dimethyl-9-(2,6,6-trimethylcyclohex-1-en-1-yl)nona-2,4,6,8-tetraen-1-amine] |  | 95 | much higher liver concentrations of N-retinylamides than those treated with the conjugate | less than 1 week | effective protection against light-induced retinal degeneration | did not maintain such protection | No protective effect | thickness comparable to that of mice without light illumination | significant loss of ERG activity | significantly reduced
